Here are results for 16 compounds from ChEMBL document CHEMBL1821631, “A novel binding assay identifies high affinity ligands to the rosiglitazone binding site of mitoNEET” (Bioorg Med Chem Lett, 2011).

The term pIC50 denotes −log10 of the IC50, conventionally taken in molar units.

pIC50: −log10 of the molar value. Active and inactive are the calls of the source. The rule behind the calls is not given here.

The target in the first test is T1, CDGSH iron-sulfur domain-containing protein 1 (Homo sapiens) (UniProt Q9NZ45).
T1 sequence (whole entry): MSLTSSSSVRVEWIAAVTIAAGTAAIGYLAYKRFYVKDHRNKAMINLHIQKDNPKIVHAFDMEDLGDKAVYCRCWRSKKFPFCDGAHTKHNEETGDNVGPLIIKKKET
Briefly: Displacement of [3H]-rosiglitazone from human recombinant C-terminal His-tagged cytosolic domain of mitoNEET (32-108) at 80 uM by scintillation proximity assay.
As to `N#CCCN1C(=O)S/C(=C\c2ccccc2)C1=O`, the inhibition entry is “inactive”.

On to `Oc1ccc(/C=C/c2cc(O)cc(O)c2)cc1`, for which the inhibition result is “inactive”.

The target in another test is T2, CDGSH iron-sulfur domain-containing protein 1 (Homo sapiens, UniProt Q9NZ45).
T2 sequence (Q9NZ45 whole entry): T1 sequence (whole entry)
Kind of test: Displacement of [3H]-rosiglitazone from human recombinant C-terminal His-tagged cytosolic domain of mitoNEET (32-108) by scintillation proximity assay. A general note: Displacement assays read how much labelled ligand stays bound in the presence of the test substance.
`O=C1NC(=O)C(Cc2ccc(O)cc2)S1` (stereo unspecified) [GLITAZONE]: the pIC50 was 4.85. Same read-out and setting: under `COc1cc(/C=C2\SC(=S)NC2=O)ccc1O` stands 5.76; under `COc1cc(/C=C2/SC(=S)NC2=O)c(OC)cc1O`, 5.35; under `O=C1NC(=S)S/C1=C/c1ccncc1`, 5.22. With `CC(C)(C)c1cc(CC2SC(=O)N=C2O)cc(C(C)(C)C)c1O` (stereo unspecified), the pIC50 was 5.13.

Turning to `Cc1cc(C)cc(CC2SC(=O)NC2=O)c1` (stereo unspecified), the pIC50 was 4.87. As to `O=C1NC(=O)/C(=C\c2cc(Br)c(O)cc2Br)S1`, the pIC50 is 5.53.

Turning to `O=C(/C=C1/SC(=O)NC1=O)Nc1cccc(O)c1`, the pIC50 is 4.86.

Consider `Cc1cc(CC2SC(=O)NC2=O)cc(C)c1O` (stereo unspecified), for which the pIC50 is 5.02.

`O=S(=O)(O)Oc1cc(O)cc(/C=C/c2ccc(O)cc2)c1`: the pIC50 was 5.47. Regarding `O=C1NC(=O)/C(=C/c2ccc3nccnc3c2)S1`, the pIC50 was 5.49.

For `O=C(/C=C1/SC(=O)NC1=O)Nc1ccccc1`, the pIC50 is 4.96.

On to `O=C1NC(=O)C(Cc2ccc3c(c2)OC(F)(F)O3)S1` (stereo unspecified), for which the pIC50 was 5.28. On the same count and under the same terms, the result for `COc1ccccc1/C=C1\SC(=O)N(CCN)C1=O` reads 4.08.
